In patent publication US7320972B2, “4-Biarylyl-1-phenylazetidin-2-ones” (Microbia, Inc., priority 2003, dated 2008):

System: cholesterol absorption (serum 3H-cholesterol)
Test: In Vivo Assay of Hypolipidemic Agents using the Rat Cholesterol Absorption Model
Design: species or system Sprague-Dawley rats
Conditions: peroral; for inhibition in vivo at 1 mg/kg: po; for inhibition in vivo at 1 mg/kg / % inhibition at 1 mg/kg: serum 3H-cholesterol 3 h after cholesterol dose, vs vehicle control; for % inhibition at 10 mg/kg: 10 mg/kg (footnote 1)
Description: In Vivo Assay of Hypolipidemic Agents using the Rat Cholesterol Absorption Model. This model is based on models described by Burnett et al (2002), Bioorg. Med. Chem. Lett. 2002 Feb. 11;12(3):315-8 and J. Lipid Res. 1999 October;40(10):1747-57. Female Sprague-Dawley rats weighing 150-250 g are separated into groups of […] and fasted overnight. The animals (4-6/group) are dosed perorally with 300 μL test compounds in olive oil or suitable vehicle. Thirty minutes later, 3-5 microCuries ^3H-cholesterol per rat are delivered perorally in 300 μL olive oil. After three hours, 200 μL serum is collected, vortexed with scintillation fluid, and measured for radioactivity in a scintillation counter. Percent inhibition is defined as 100*(1−Ctest/Cctrl), where Ctest and Cctl refer to ^3H levels in serum for the test compound and for the vehicle only control, respectively. Percent inhibition values are reported for a fixed dose. The ED50 is the dose at which the half-maximal effect on serum ^3H levels is observed for a given test compound.
Representative compounds of the invention were tested in the Rat Cholesterol Absorption model above.

[1] = serum 3H-cholesterol vs vehicle control

Row | Compound | inhibition in vivo at 1 mg/kg [%] | further results
1 | Cc1ccccc1-c1ccc([C@@H]2[C@@H](CC[C@H](O)c3ccc(F)cc3)C(=O)N2c2ccc(F)cc2)cc1 [Example 98, (3R,4S)-1-(4-fluorophenyl)-3-[(3S)-3-(4-fluorophenyl)-3-hydroxypropyl]-4-(2′-methylbiphenyl-4-yl)azetidin-2-one] | 7 | –
2 | O=C1[C@H](CC[C@H](O)c2ccc(F)cc2)[C@@H](c2ccc(-c3ccc(S(=O)(=O)O)cc3)cc2O)N1c1ccccc1 [Example 128, Sodium 4′-{(2S,3R)-3-[(3S)-3-(4-fluorophenyl)-3-hydroxypropyl]-4-oxo-1-phenylazetidin-2-yl}-3′-hydroxybiphenyl-4-sulfonate] | 60 | –
3 | CCOc1cccc(-c2ccc([C@@H]3[C@@H](CC[C@H](O)c4ccc(F)cc4)C(=O)N3c3ccc(F)cc3)cc2)c1 [Example 100, (3R,4S)-4-(3′-ethoxybiphenyl-4-yl)-1-(4-fluorophenyl)-3-[(3S)-3-(4-fluorophenyl)-3-hydroxypropyl]azetidin-2-one] | 54 | –
4 | C[N+](C)(C)c1cccc(-c2ccc([C@@H]3[C@@H](CC[C@H](O)c4ccc(F)cc4)C(=O)N3c3ccc(F)cc3)cc2)c1 [Example 120, 4′-{(2S,3R)-1-(4-fluorophenyl)-3-[(3S)-3-(4-fluorophenyl)-3-hydroxypropyl]-4-oxoazetidin-2-yl}-N,N,N-trimethylbiphenyl-3-aminium] | – | % inhibition at 1 mg/kg: 23%
5 | O=C(O)Cc1ccc(-c2ccc([C@@H]3[C@@H](CC[C@H](O)c4ccc(F)cc4)C(=O)N3c3ccc(F)cc3)cc2)cc1 [Example 88, (4′-{(2S,3R)-1-(4-fluorophenyl)-3-[(3S)-3-(4-fluorophenyl)-3-hydroxypropyl]-4-oxoazetidin-2-yl}biphenyl-4-yl)acetic Acid] | 30 | –
6 | COc1cc(OC)cc(-c2ccc([C@@H]3[C@@H](CC[C@H](O)c4ccc(F)cc4)C(=O)N3c3ccc(F)cc3)cc2)c1 [Example 107, (3R,4S)-4-(3′,5′-dimethoxybiphenyl-4-yl)-1-(4-fluorophenyl)-3-[(3S)-3-(4-fluorophenyl)-3-hydroxypropyl]azetidin-2-one] | 49 | –
7 | O=C1[C@H](CC[C@H](O)c2ccc(F)cc2)[C@@H](c2ccc(-c3cc(O)ccc3Br)cc2)N1c1ccc(F)cc1 [Example 19, (3R,4S)-4-(2′-bromo-5′-hydroxybiphenyl-4-yl)-1-(4-fluorophenyl)-3-[(3S)-3-(4-fluorophenyl)-3-hydroxypropyl]azetidin-2-one] | 66 | –
8 | COc1ccc(-c2ccc([C@@H]3[C@@H](CC[C@H](O)c4ccc(F)cc4)C(=O)N3c3ccc(F)cc3)cc2)c(OC)c1OC [Example 96, (3R,4S)-1-(4-fluorophenyl)-3-[(3S)-3-(4-fluorophenyl)-3-hydroxypropyl]-4-(2′,3′,4′-trimethoxybiphenyl-4-yl)azetidin-2-one] | 69 | –
9 | O=C1[C@H](CCC(O)c2ccc(F)cc2)[C@@H](c2ccc(-c3cccc(S(=O)(=O)O)c3)cc2O)N1c1ccccc1 (stereo partly drawn) [Example 53, Sodium 4′-{(2S,3R)-3-[(3S/R)-3-(4-fluorophenyl)-3-hydroxypropyl]-4-oxo-1-phenylazetidin-2-yl}-3′-hydroxybiphenyl-3-sulfonate] | 78 | –
10 | O=C1[C@H](CC[C@H](O)c2ccc(F)cc2)[C@@H](c2ccc(-c3cccc([C@H](O)[C@H]4OC(O)[C@H](O)[C@@H](O)[C@@H]4O)c3)cc2)N1c1ccccc1 (stereo partly drawn) [Example 71, (6S)-6-C-(4′-{(2S,3R)-3-[(3S)-3-(4-Fluorophenyl)-3-hydroxypropyl]-4-oxo-1-phenylazetidin-2-yl}biphenyl-3-yl)-D-glucopyranose] | 65 | –
11 | O=C1[C@H](CC[C@H](O)c2ccc(F)cc2)[C@@H](c2ccc(-c3cccc(O)c3)cc2)N1c1ccc(-c2ccccc2)cc1 [Example 124, (3R,4S)-1-biphenyl-4-yl-3-[(3S)-3-(4-fluorophenyl)-3-hydroxypropyl]-4-(3′-hydroxybiphenyl-4-yl)azetidin-2-one] | 48 | –
12 | COC(=O)c1ccc(-c2ccc([C@@H]3[C@@H](CC[C@H](O)c4ccc(F)cc4)C(=O)N3c3ccc(F)cc3)cc2)cc1 [Example 89, methyl 4′-{(2S,3R)-1-(4-fluorophenyl)-3-[(3S)-3-(4-fluorophenyl)-3-hydroxypropyl]-4-oxoazetidin-2-yl}biphenyl-4-carboxylate] | 45 | –
13 | CN(C)S(=O)(=O)c1ccc(-c2ccc([C@@H]3[C@@H](CC[C@H](O)c4ccc(F)cc4)C(=O)N3c3ccc(F)cc3)cc2)cc1 [Example 15, 4′-{(2S,3R)-1-(4-fluorophenyl)-3-[(3S)-3-(4-fluorophenyl)-3-hydroxypropyl]-4-oxoazetidin-2-yl}biphenyl-N,N-dimethylbiphenyl-4-sulfonamide] | 8 | –
14 | O=C(O)c1ccc(-c2ccc([C@@H]3[C@@H](CC[C@H](O)c4ccc(F)cc4)C(=O)N3c3ccc(F)cc3)cc2)cc1O [Example 110, 4′-{(2S,3R)-1-(4-fluorophenyl)-3-[(3S)-3-(4-fluorophenyl)-3-hydroxypropyl]-4-oxoazetidin-2-yl}-3-hydroxybiphenyl-4-carboxylic Acid] | 72 | –
15 | O=C1[C@H](CC[C@H](O)c2ccc(F)cc2)[C@@H](c2ccc(-c3ccccc3)cc2)N1c1ccc(F)cc1 [Example 3, (3R,4S)-4-Biphenyl-4-yl-1-(4-fluorophenyl)-3-[(3S)-3-(4-fluorophenyl)-3-hydroxypropyl]azetidin-2-one] | – | % inhibition at 10 mg/kg [1]: 15^1%
16 | O=C1[C@H](CC[C@H](O)c2ccc(F)cc2)[C@@H](c2ccc(-c3cccc(O)c3)s2)N1c1ccccc1 [Example 50, (3R,4S)-3-[(3S)-3-(4-Fluorophenyl)-3-hydroxypropyl]-4-[5-(3-hydroxyphenyl)-2-thienyl]-1-phenylazetidin-2-one] | 27 | –
17 | COc1cc(-c2ccc([C@@H]3[C@@H](CC[C@H](O)c4ccc(F)cc4)C(=O)N3c3ccc(F)cc3)cc2)ccc1O [Example 102, (3R,4S)-1-(4-fluorophenyl)-3-[(3S)-3-(4-fluorophenyl)-3-hydroxypropyl]-4-(4′-hydroxy-3′-methoxybiphenyl-4-yl)azetidin-2-one] | 56 | –
18 | COc1ccc(C=O)c(-c2ccc([C@@H]3[C@@H](CC[C@H](O)c4ccc(F)cc4)C(=O)N3c3ccc(F)cc3)cc2)c1 [Example 85, 4′-{(2S,3R)-1-(4-fluorophenyl)-3-[(3S)-3-(4-fluorophenyl)-3-hydroxypropyl]-4-oxoazetidin-2-yl}-5-methoxybiphenyl-2-carbaldehyde] | 15 | –
19 | O=C1[C@H](CC[C@H](O)c2ccc(F)cc2)[C@@H](c2ccc(-c3cccc([N+](=O)[O-])c3)cc2)N1c1ccc(F)cc1 [Example 23, (3R,4S)-1-(4-fluorophenyl)-3-[(3S)-3-(4-fluorophenyl)-3-hydroxypropyl]-4-(3′-nitrobiphenyl-4-yl)azetidin-2-one] | – | % inhibition at 10 mg/kg [1]: 54^1%
20 | CC(=O)Nc1cccc(-c2ccc([C@@H]3[C@@H](CC[C@H](O)c4ccc(F)cc4)C(=O)N3c3ccc(F)cc3)cc2)c1 [Example 26, N-(4′-{(2S,3R)-1-(4-fluorophenyl)-3-[(3S)-3-(4-fluorophenyl)-3-hydroxypropyl]-4-oxoazetidin-2-yl}biphenyl-3-yl)acetamide] | – | % inhibition at 10 mg/kg [1]: 76^1%
21 | O=C1[C@H](CC[C@H](O)c2ccc(F)cc2)[C@@H](c2ccc(-c3ccc([C@@H]4O[C@H](CO)[C@@H](O)[C@H](O)[C@H]4O)cc3)cc2O)N1c1ccccc1 [Example 66, (1S)-1,5-Anhydro-1-(4′-{(2S,3R)-3-[(3S)-3-(4-fluorophenyl)-3-hydroxypropyl]-4-oxo-1-phenylazetidin-2-yl}-3′-hydroxybiphenyl-4-yl)-D-glucitol] | – | % inhibition at 0.3 mg/kg (0.3 mg/kg (footnote 6), serum 3H-cholesterol vs vehicle control): 71^6%
22 | O=C1[C@H](CC[C@H](O)c2ccc(F)cc2)[C@@H](c2ccc(-c3ccc(O)cc3O)cc2)N1c1ccc(F)cc1 [Example 108, (3R,4S)-4-(2′,4′-dihydroxybiphenyl-4-yl)-1-(4-fluorophenyl)-3-[(3S)-3-(4-fluorophenyl)-3-hydroxypropyl]azetidin-2-one] | 69 | –
23 | O=C1[C@H](CC[C@H](O)c2ccc(F)cc2)[C@@H](c2ccc(-c3cccc(C[C@@H]4O[C@H](CO)[C@@H](O)[C@H](O)[C@H]4O)c3)cc2)N1c1ccc(F)cc1 [Example 117] | – | % inhibition at 1 mg/kg: 26%
24 | O=C1[C@H](CC[C@H](O)c2ccc(F)cc2)[C@@H](c2ccc(-c3cccc(CO)c3)cc2)N1c1ccc(F)cc1 [Example 16, (3R,4S)-1-(4-Fluorophenyl)-3-[(3S)-3-(4-fluorophenyl)-3-hydroxypropyl]-4-(3′-(hydroxymethyl)biphenyl-4-yl)azetidin-2-one] | 72 | –
25 | CO[C@H]1O[C@H](COc2cccc(-c3ccc([C@@H]4[C@@H](CC[C@H](O)c5ccc(F)cc5)C(=O)N4c4ccc(F)cc4)cc3)c2)[C@@H](O)[C@H](O)[C@H]1O [Example 77, Methyl 6-O-(4′-{(2S,3R)-1-(4-fluorophenyl)-3-[(3S)-3-(4-fluorophenyl)-3-hydroxypropyl]-4-oxoazetidin-2-yl}biphenyl-3-yl)-α-D-glucopyranoside] | 70 | –
